According to PubChem BioAssay (NCI):
Several values for one entry are separate records, joined by “and”; a condition that tells them apart may be missing. Equal entries are not always repeated.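 Following 48 hours of exposure in 96-well plates, responses at five concentrations were used to interpolate endpoints linearly. TGI: total growth inhibition.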

Assays:
Experiment in all cases: inhibition of tumour cell growth, NCI panel, 48 h
ACHN renal = system: ACHN renal
IGROV1 ovarian = system: IGROV1 ovarian
SF-295 CNS = system: SF-295 CNS
SK-MEL-5 melanoma = system: SK-MEL-5 melanoma

Compound | TGI (ACHN renal) [µM] | TGI (IGROV1 ovarian) | TGI (SF-295 CNS) | TGI (SK-MEL-5 melanoma)
NC(N)=Nc1ccc(CC(N)C(=O)O)cc1 (stereo not given) | > 12.5 | > 12.5 µM | > 12.5 µM | > 12.5 µM
O=C1CSC(c2cccc([N+](=O)[O-])c2)N1c1ccc(-n2c(-c3ccccc3)nc3ccccc3c2=O)cc1 (stereo not given) | > 100 | > 100 µM | > 100 µM | > 100 µM
O=[N+]([O-])c1cc(-c2nc(-c3ccccc3)c(-c3ccccc3)[nH]2)c(O)c([N+](=O)[O-])c1 | 46.7 | > 100 µM | 54.2 µM | 36 µM
O=C1CC(c2ccccc2)n2cccc21 (stereo not given) | > 100 | > 100 µM | > 100 µM | > 100 µM
CCCCn1c2c(n(CCCC)c1=S)-c1c(n(CCCC)c(=S)n1CCCC)SSc1c(n(CCCC)c(=S)n1CCCC)-c1c(n(CCCC)c(=S)n1CCCC)SSc1c(n(CCCC)c(=S)n1CCCC)-c1c(n(CCCC)c(=S)n1CCCC)SS2 | 11.1 | 8.64 µM | > 37 µM | > 36.6 µM
COC(=O)C1OC(O[C@H]2CC[C@]3(C)[C@H]4CC=C5[C@@H]6CC(C)(C)CC[C@]6(C(=O)OC6OCC(O)C(O)C6OC6OC(C)C(OC7OCC(O)C(O)C7O)C(O)C6O)CC[C@@]5(C)[C@]4(C)CC[C@H]3C2(C)C)C(O)C(O)C1O (stereo not given in full) | – | 75 µM and > 100 µM | 34.8 µM and 32.2 µM | 31.8 µM and 32.5 µM
CC1=C(C)Cc2c(O)ccc(O)c2C1 | 31.2 | – | > 100 µM | 27.7 µM
O=C1Oc2cc(O)cc(/C=C/c3ccc(O)cc3)c2[C@@]12c1c(O)cc(O)cc1OC2c1cccc(O)c1 (stereo not given in full) | > 100 | 31 µM | 88.1 µM | 43.3 µM
C=C1CCC([N+](=O)[O-])[C@](C)(N=O)CC[C@@H]2C1CC2(C)C (stereo not given in full) | > 100 | 59.1 µM | 37.6 µM | 28.6 µM
COc1ccc(SCc2cc(OCc3ccccc3)c(OCc3ccccc3)c(OCc3ccccc3)c2)cc1 | 3.1 | 3.34 µM | 3.58 µM | –
COc1cc(Cc2nccc3cc(OC)c(OC)cc23)c(N=NN(C)C)cc1OC | > 100 | 39.2 µM | 74.9 µM | 26.4 µM
COC(=O)C1(C)C=CC(=O)C2(C)C1C(O)C1OC3CC(c4ccoc4)C(C)=C3C1(C)C2CC(=O)O (stereo not given) | > 100 | > 100 µM | > 100 µM | > 100 µM
C=C(C)[C@@H]1CCC2=C[C@H](OC2=O)[C@@]2(C)C[C@@H]2C2=CC(C)=C(O2)[C@H]1O | > 75 | > 75 µM | > 75 µM | –
COC(=O)c1ccccc1C1CN=NC12Cc1cc(C)ccc1C2=O (stereo not given) | > 100 | > 100 µM | > 100 µM | > 100 µM
CCOC(=O)c1c(N2CCOCC2)[nH]c(=O)c(C(c2ccco2)c2c(O)c(C(=O)OCC)c(N3CCOCC3)[nH]c2=O)c1O | > 100 | – | > 100 µM | > 100 µM
CCOC(=O)c1ccc(N=c2sc3ccccc3nc2Nc2ccc(C(=O)OCC)cc2)cc1 | > 100 | > 100 µM | > 100 µM | > 100 µM

Compound | TGI (ACHN renal) [µM] | TGI (IGROV1 ovarian) | TGI (SF-295 CNS) | TGI (SK-MEL-5 melanoma)
CCOC(=O)C(SCCO)C(C(=O)OCC)n1ccc(=O)[nH]c1=O (stereo not given) | > 66.6 | > 95 µM | > 100 µM | > 100 µM
O=C(NNC(=S)NC1CCCCC1)c1csc(NC(=S)NC2CCCCC2)n1 | 15.3 | 26.6 µM | 19.7 µM | 8.79 µM
CC(=O)OCc1ccc2oc(=O)c(C(=O)Oc3ccccc3)cc2c1 | > 100 | > 100 µM | > 100 µM | > 100 µM
COc1cc(CNNC(N)=S)cc(OC)c1OC | > 100 | > 100 µM | > 100 µM | > 100 µM
Cc1cn(CC2=NCC(C)N2)c(=O)[nH]c1=O (stereo not given) | > 100 | > 100 µM | > 100 µM | > 100 µM
Cc1ccc(S(=O)(=O)NNCNC(=O)c2ccccc2)cc1 | > 100 | > 100 µM | > 100 µM | > 100 µM
O=C(O)CN1C(=O)C(Cc2ccc(O)cc2)N=C(c2cccc(O)c2)c2ccccc21 (stereo not given) | > 100 | > 100 µM | > 100 µM | –
Cc1cc(=O)oc2c(CNC(Cc3ccccc3)C(=O)O)c(O)ccc12 (stereo not given) | > 100 | > 100 µM | > 100 µM | > 100 µM
CC(C)(C)OC(=O)N1C(c2cccnc2)=CC[C@H]2C3CC=C(c4cccnc4)[C@@]3(C)CC[C@@H]21 (stereo not given in full) | 11.3 | 16.4 µM | 11.1 µM | 4.18 µM
N[C@H]1CCCC[C@@H]1N1C(=O)c2ccccc2C1(O)c1ccc(Cl)cc1 (stereo not given in full) | 27 | 25.7 µM | 30.9 µM | 22.5 µM
C=CCc1cccc2cc(C(=O)Nc3ccccn3)c(=N)oc12 | > 100 | > 100 µM | – | > 100 µM
O=C1C(c2c(O)[nH]c3ccc(Br)cc23)=Nc2ccccc21 | 12.2 | 13 µM | 51 µM | 18.6 µM
CC1=C(C(=O)Nc2ccccc2)C2(CCCCC2)C(C#N)=C(SCC(=O)Nc2ccc(Br)cc2)N1 | 19.8 | 14.6 µM | 28.9 µM | 8.39 µM
CCCC(=O)OC1C(CO)OC(n2cc(F)c(=O)[nH]c2=O)C1F (stereo not given) | > 100 | > 100 µM | > 100 µM | > 100 µM
CC1(C)CCC[C@]2(C)[C@H]3[C@H](C#N)c4cc(O)c(O)cc4O[C@@]3(C)CC[C@@H]12 | > 10 | > 10 µM | > 10 µM | > 10 µM
Cc1ccc2c(c1)-c1nc(N)c(C#N)c(-c3ccccc3)c1CCS2(=O)=O | > 100 | > 100 µM | – | > 100 µM
